Values joined by “and” are separate entries in the source; they are usually repeats but may differ in a detail not shown here. Equal entries are not always repeated. “Also recorded” adds a separate entry of the source. Where two headings read alike, the source gives them in different places.
Columns and labels:
[1] = system: subcutaneous rat implant model; test: Subcutaneous rat implant model, collagen/GFm sponges supplemented with calcium phosphates (Example 3/5); assay type: in vivo; details: for Average Mineral Mass / Average Explant Mass / Average Histology Score [0-5]: inter-animal average; for Average Mineral Mass: ash weight; for Average Explant Mass: collagen 7 mg + GFm 10 μg, additive 7 mg (50 wt. %); for Average Histology Score [0-5] / Histology score, Direct Comparison Averages [0-5]: scoring of Table 7; for Explant mass, Direct Comparison Averages / Mineral mass, Direct Comparison Average / Histology score, Direct Comparison Averages [0-5]: intra-animal comparison subset; for bone quality and maturity in histological sections: photomicrographs FIG. 15, H&E/Von Kossa, toluidine blue; for Explant mass, Direct Comparison Δwt. % / Histology score, Direct Comparison [%] / Mineral mass, Direct Comparison Δwt. %: relative to intra-animal collagen/GFm control; for effect on explant and mineral mass: versus collagen controls / other compositions
Protocol: The advantages of the rat model for product evaluation include an accelerated rate of bone induction. Visible evidence of mineralization appears in the implant within several days (˜10), with typical experiments lasting between 14 and 21 days. The testing protocol involved implantation of porous collagen (bovine tendon Type 1, 7 mg, 96 vol. % porosity) samples containing a natural mixture of bovine, osteoinductive proteins (GFm, 10 μg). […] Samples were implanted in four subcutaneous sites including the upper quadrants of the abdomen (sites 1, 2) and the upper quadrants of the dorsal thorax (sites 6, 7). The osteoinductive differences between controls and calcium phosphate supplemented samples [7 mg, 50 wt. %] were assessed using three standard test protocols: histological tissue analysis and mineral composition via x-ray and ash weight analysis (Intermedics Orthopedics/Denver, Inc. Histology protocol STM 009; Intermedics Orthopedics/Denver, Inc. Alkaline phophatase protocol STM 0024, 0026).
Samples were assessed in comparison to two different control sample populations, including: collagen sponges and collagen/GFm sponges supplemented with 50 wt % devitalized bone matrix (DVBM) additives. The collagen/GFm control samples were used as a reference for a baseline osteoinductive response. A calcium phosphate additive was considered detrimental if it either reduced the explant or mineral mass values or if it negatively influenced bone maturation. […] These samples were prepared as an alternative for demineralized bone matrix (DBM) additives. Demineralized bone matrix provides both an ideal osteoconductive matrix for cellular invasion and bone mineralization and a pooled concentration of osteoinductive proteins.
ANOVA was performed without data replications turning the analysis into an expanded pool Student-T test. Statistical significance was predicted using α<0.05. […] Compositions that had no significant influence on mass are indicated in plain text. Compositions that stimulated a statistically significant improvement in mass are indicated in bold text [Tables 5 and 6].
The quality and skeletal maturity of produced bone was assessed through histological microscopic analysis of thin, stained tissue sections. […] Thin sections (4 μm) from the explant midlines were obtained with a microtome. One section was stained with hematoxylin & eosin (H&E) and one was stained with toluidine blue to highlight important cellular details. The H&E sections were counterstained with silver nitrate (Von Kossa technique) to highlight mineralized tissue components. The histological sections were scored for quality and maturity using a scoring system, outlined in Table 7, previously developed by Sulzer Biologics according to STM-021. […]

[2] = pH buffering potential of calcium salts; assay type: physicochemical
[3] = Equilibrium solubility of calcium and phosphate ions from calcium phosphate salts; assay type: physicochemical
[4] = equilibrium solubility of the salt

Row | pH (buffering potential of the salt) [2] | pH (buffering potential of the salt) ([2]; listed as Hydroxyapatites) | Insoluble fraction [200 mg/cc] ([3]; 200 mg/cc) | Equilibrium [Ca^2+] [3, 4] | Equilibrium [PO4^3−] [3, 4] | Molecule | Average Mineral Mass [1] | Average Explant Mass [1] | Average Histology Score [0-5] [1] | Explant mass, Direct Comparison Averages [1] | Mineral mass, Direct Comparison Average [1] | Histology score, Direct Comparison Averages [0-5] [1] | improvement in histological score ([1]; intra-animal, relative to collagen control) | bone quality and maturity in histological sections [1] | Explant mass, Direct Comparison Δwt. % [1] | Histology score, Direct Comparison [%] [1] | Mineral mass, Direct Comparison Δwt. % [1] | Explant mass, Direct Comparison Δwt. % ([1]; listed as 2CaO.P2O5) | Mineral mass, Direct Comparison Δwt. % ([1]; listed as 2CaO.P2O5) | effect on explant and mineral mass [1] | histological score / osteoinductive performance, statistical comparison ([1]; α<0.05)
1 |  |  |  |  |  | O=P([O-])([O-])OP(=O)([O-])[O-].[Ca+2].[Ca+2] [2CaO•P2O5•2H2O (CP), calcium pyrophosphate] | 20.8 mg | 126.2 mg | 2.3 | 170.3 mg | 31.5 mg | 2.3 | +163 wt. % | comparatively reduced in maturity but were greater than control samples | +99.6% wt. % | +11.1% | +163.0% wt. % | +99.6 wt. % | +263 wt. % | appreciably enhanced; also recorded: significantly enhanced explant and mineral mass values | Statistically superior improvements in histological score
2 |  |  |  |  |  | O=P([O-])([O-])[O-].O=P([O-])([O-])[O-].[Ca+2].[Ca+2].[Ca+2] [3CaO•P2O5 (α-TCP), tricalcium phosphate] | 6.5 mg | 39.5 mg | 1.1 | 58.7 mg | 9.4 mg | 1.3 |  |  | −42.9% wt. % | −35.1% | −28.3% wt. % |  |  |  | 
3 |  |  |  |  |  | O=P([O-])([O-])[O-].O=P([O-])([O-])[O-].[Ca+2].[Ca+2].[Ca+2] [3CaO•P2O5 (β-TCP), tricalcium phosphate] | 8.1 mg | 80.1 mg | 1.3 | 71.6 mg | 5.7 mg | 1.3 |  |  | −26.3% wt. % | −23.9% | −31.6% wt. % |  |  |  | 
4 |  |  |  |  |  | O=C([O-])[O-].[Ca+2] [CaCO3 (aragonite), calcium carbonate] | 10.4 mg | 69.4 mg | 1.0 | 88.6 mg | 14.5 mg | 1.0 |  |  | −27.3% wt. % | −63.9% | +3.8% wt. % |  |  |  | 
5 |  |  |  |  |  | O=C([O-])[O-].[Ca+2] [CaCO3 (calcite), calcium carbonate] | 7.9 mg | 67.4 mg | 1.0 | 73.1 mg | 8.1 mg | 1.0 |  |  | −28.0% wt. % | −58.3% | −3.2% wt. % |  |  |  | 
6 |  |  |  |  |  | O=C([O-])[O-].[Ca+2] [calcium carbonates, calcium carbonate] |  |  |  |  |  |  |  | comparatively reduced |  |  |  |  |  |  | 
7 |  |  |  |  |  | hydroxyapatite [3.33CaO.P2O5(OH)2 (Calcitek)] |  |  |  |  |  |  |  |  | +44.1 wt. % |  | +279.6 wt. % |  |  |  | 
8 |  |  |  |  |  | hydroxyapatite [3.33CaO•P2O5 (HA-am)] | 26.5 mg and 29.4 mg | 129.9 mg and 117.9 mg | 1.3 and 1.4 | 120.3 mg and 140.6 mg | 27.1 mg and 30.4 mg | 1.2 and 1.7 |  |  |  |  |  |  |  |  | 
9 |  |  |  |  |  | hydroxyapatite [3.33CaO•P2O5 (HA-px)] | 19.8 mg | 113.5 mg | 1.4 | 124.7 mg | 21.9 mg | 2.0 |  |  | +4.5% wt. % | −26.7% | +74.3% wt. % |  |  |  | 
10 | ~8.5 and ~9 | ~8 | 99.9999 wt. % | 2.2 µM | 1.3 µM | hydroxyapatite [Ca5(PO4)3(OH) (HA)] |  |  |  |  |  |  |  | negative effect on bone ossicle maturation; also recorded: comparatively reduced |  |  |  |  |  | appreciably enhanced | 

From patent US8690874B2, “Composition and process for bone growth and repair” (Zimmer Orthobiologics, Inc., priority 2000, dated 2014)
